Laboratory results: patent US20130109682A1, “CYCLIC ETHER COMPOUNDS USEFUL AS KINASE INHIBITORS” (NOVARTIS AG, priority 2010, published 2013)

Legend:
[1] = target: PIM1 (Homo sapiens, UniProt P11309); experiment: KinaseGlo Pim1 ATP depletion assay; assay type: biochemical
Procedure: KinaseGlo Pim1 ATP Depletion Assay
The activity of PIM1 is measured using a luciferase-luciferin based ATP detection reagent to quantify ATP depletion resulting from kinase-catalyzed phosphoryl transfer to a peptide substrate. Compounds to be tested are dissolved in 100% DMSO and directly distributed into white 384-well plates at 0.5 μA per well. To start the reaction, 10 μA of 5 nM Pim1 kinase and 80 μM BAD peptide (RSRHSSYPAGT-OH) in assay buffer (50 mM HEPES pH 7.5, 5 mM MgCl2, 1 mM DTT, 0.05% BSA) is added into each well. After 15 minutes, 10 μl of 40 μM ATP in assay buffer is added. Final assay concentrations are 2.5 nM PIM1, 20 μM ATP, 40 μM BAD peptide and 2.5% DMSO. The reaction is performed until approximately 50% of the ATP is depleted, then stopped with the addition of 20 μA KinaseGlo Plus (Promega Corporation) solution. The stopped reaction is incubated for 10 minutes and the remaining ATP detected via luminescence on the Victor2 (Perkin Elmer). […] IC50, the half maximal inhibitory concentration, represents the concentration of a test compound that is required for 50% inhibition of its target in vitro.

[2] = target: PIM2 (Homo sapiens, UniProt Q9P1W9); experiment: KinaseGlo Pim2 ATP depletion assay; assay type: biochemical
Chain of PIM2 (Q9P1W9 whole entry): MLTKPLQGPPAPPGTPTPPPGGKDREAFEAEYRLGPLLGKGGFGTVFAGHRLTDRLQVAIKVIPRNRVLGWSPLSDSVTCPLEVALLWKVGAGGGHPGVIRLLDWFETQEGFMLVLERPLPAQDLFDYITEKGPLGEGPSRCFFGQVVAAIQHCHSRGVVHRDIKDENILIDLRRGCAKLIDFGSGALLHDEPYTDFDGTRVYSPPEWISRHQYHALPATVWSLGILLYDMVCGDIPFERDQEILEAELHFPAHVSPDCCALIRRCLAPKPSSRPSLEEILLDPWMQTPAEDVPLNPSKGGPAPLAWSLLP
Procedure: KinaseGlo Pim2 ATP Depletion Assay
The activity of PIM2 is measured using a luciferase-luciferin based ATP detection reagent to quantify ATP depletion resulting from kinase-catalyzed phosphoryl transfer to a peptide substrate. Compounds to be tested are dissolved in 100% DMSO and directly distributed into white 384-well plates at 0.5 piper well. To start the reaction, 10 μl of 10 nM Pim2 kinase and 20 μM BAD peptide (RSRHSSYPAGT-OH) in assay buffer (50 mM HEPES pH 7.5, 5 mM MgCl2, 1 mM DTT, 0.05% BSA) is added into each well. After 15 minutes, 10 μl of 8 μM ATP in assay buffer is added. Final assay concentrations are 5 nM PIM2, 4 μM ATP, 10 μM BAD peptide and 2.5% DMSO. The reaction is performed until approximately 50% of the ATP is depleted, then stopped with the addition of 20 μl KinaseGlo Plus (Promega Corporation) solution. The stopped reaction is incubated for 10 minutes and the remaining ATP detected via luminescence on the Victor2 (Perkin Elmer).

[3] = target: PIM3 (Homo sapiens, UniProt Q86V86); experiment: KinaseGlo Pim3 ATP depletion assay; assay type: biochemical
Procedure: KinaseGlo Pim3 ATP Depletion Assay
The activity of PIM3 is measured using a luciferase-luciferin based ATP detection reagent to quantify ATP depletion resulting from kinase-catalyzed phosphoryl transfer to a peptide substrate. Compounds to be tested are dissolved in 100% DMSO and directly distributed into white 384-well plates at 0.5 μl per well. To start the reaction, 10 μl of 10 nM Pim3 kinase and 200 μM BAD peptide (RSRHSSYPAGT-OH) in assay buffer (50 mM HEPES pH 7.5, 5 mM MgCl2, 1 mM DTT, 0.05% BSA) is added into each well. After 15 minutes, 10 μl of 80 μM ATP in assay buffer is added. Final assay concentrations are 5 nM […], 40 μM ATP, 100 μM BAD peptide and 2.5% DMSO. The reaction is performed until approximately 50% of the ATP is depleted, then stopped by the addition of 20 μl KinaseGlo Plus (Promega Corporation) solution. The stopped reaction is incubated for 10 minutes and the remaining ATP detected via luminescence on the Victor2 (Perkin Elmer).

[4] = target: GSK3β (Homo sapiens, UniProt P49841); experiment: GSK3β ATP depletion assay; assay type: biochemical; details: read-out: GSK3b IC50
Chain of GSK3β (P49841 whole entry, species assumed): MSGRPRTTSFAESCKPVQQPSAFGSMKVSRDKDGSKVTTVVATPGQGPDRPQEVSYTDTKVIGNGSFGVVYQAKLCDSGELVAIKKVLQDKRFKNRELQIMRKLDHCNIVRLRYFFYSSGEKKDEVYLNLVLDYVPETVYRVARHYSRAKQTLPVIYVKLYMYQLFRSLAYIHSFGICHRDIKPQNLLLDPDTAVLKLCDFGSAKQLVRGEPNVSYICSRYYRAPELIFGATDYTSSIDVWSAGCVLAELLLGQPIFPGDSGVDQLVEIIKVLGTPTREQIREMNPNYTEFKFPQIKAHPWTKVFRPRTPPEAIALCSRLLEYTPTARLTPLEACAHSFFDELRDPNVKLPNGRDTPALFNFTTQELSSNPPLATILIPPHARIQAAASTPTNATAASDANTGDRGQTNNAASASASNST
Procedure: GSK3β ATP Depletion Assay
The activity of GSK3β is measured using a luciferase-luciferin based ATP detection reagent to quantify ATP depletion resulting from kinase-catalyzed phosphoryl transfer to a peptide substrate. Compounds to be tested are dissolved in 100% DMSO and directly distributed into white 384-well plates at 0.5 μl per well. To start the reaction, 10 μl of 10 nM GSK3B kinase and 20 μM biotinylated CREB peptide ([…](pS)YR-NH2) in assay buffer (50 mM TRIS pH 7.5, 15 mM MgCl2, 1 mM DTT, 0.1% BSA) is added into each well. After 15 minutes, 10 μl of 2 μM ATP in assay buffer is added. Final assay concentrations are 5 nM GSK3B, […], 10 μM b-CREB peptide and 2.5% DMSO. The reaction is performed until approximately 50% of the ATP is depleted, then stopped with the addition of 20 μl KinaseGlo (Promega Corporation) solution. The stopped reaction is incubated for 10 minutes and the remaining ATP is detected via luminescence on the Victor2 (Perkin Elmer).

[5] = test system: KMS11 (human myeloma cell line); experiment: Cell proliferation assay (CellTiter-Glo), KMS11; assay type: cell-based; details: Homo sapiens, KMS-11; KMS11-Luc cells
Procedure: KMS11 (human myeloma cell line), were cultured in IMDM supplemented with 10% FBS, sodium pyruvate and antibiotics. Cells were plated in the same medium at a density of 2000 cells per well into 96 well tissue culture plates, with outside wells vacant, on the day of assay. MMl.s (human myeloma cell line), were cultured in RPMI1640 supplemented with 10% FBS, sodium pyruvate and antibiotics. Cells were plated in the same medium at a density of 5000 cells per well into 96 well tissue culture plates, with outside wells vacant, on the day of assay.
Test compounds supplied in DMSO were diluted into DMSO at 500 times the desired final concentrations before dilution into culture media to 2 times final concentrations. Equal volumes of 2× compounds were added to the cells in 96 well plates and incubated at 37° C. for 3 days.
After 3 days plates were equilibrated to room temperature and equal volume of CellTiter-Glow Reagent (Promega) was added to the culture wells. The plates were agitated briefly and luminescent signal was measured with luminometer.
Using the procedures of Cell Proliferation Assay, the EC50 concentration of indicated compounds of the examples in were determined in KMS11 cells as shown in Table 4.

Chain of PIM1 (P11309 whole entry): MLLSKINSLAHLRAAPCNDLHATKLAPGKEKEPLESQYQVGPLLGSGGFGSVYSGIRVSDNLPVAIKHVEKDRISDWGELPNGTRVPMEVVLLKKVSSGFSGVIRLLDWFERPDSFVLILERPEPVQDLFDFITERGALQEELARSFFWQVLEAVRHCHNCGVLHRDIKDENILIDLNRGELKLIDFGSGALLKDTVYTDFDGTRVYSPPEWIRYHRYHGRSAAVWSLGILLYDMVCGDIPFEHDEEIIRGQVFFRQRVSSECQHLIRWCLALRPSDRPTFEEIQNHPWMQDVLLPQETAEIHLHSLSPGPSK

| SMILES | IC50 [1] | IC50 [2] | IC50 [3] | IC50 [4] | EC50 [5] |
| --- | --- | --- | --- | --- | --- |
| O=C(Nc1cnccc1[C@H]1C[C@@H](O)[C@@]2(O)CCC[C@H]2O1)c1ccnn(-c2ccccc2F)c1=O [Example 201, N-(4-((2R,4R,4aS,7aR)-4,4a-dihydroxyoctahydrocyclopenta[b]pyran-2-yl)pyridin-3-yl)-2-(2-fluorophenyl)-3-oxo-2,3-dihydropyridazine-4-carboxamide] | 149 nM | 3210 nM | 132 nM | 383 nM | > 10000 nM |
| C[C@H]1O[C@@H](c2ccncc2NC(=O)c2ccc(F)c(-c3c(F)cccc3F)n2)C[C@H](O)[C@@H]1O [Example 108, 6-(2,6-difluorophenyl)-N-(4-((2R,4S,5S,6R)-4,5-dihydroxy-6-methyltetrahydro-2H-pyran-2-yl)pyridin-3-yl)-5-fluoropicolinamide] | 1 nM | 15 nM | 5 nM | 344 nM | 4200 nM |
| C=C[C@H]1OC(c2ccncc2NC(=O)c2nc(-c3c(F)cccc3F)ncc2N)=C[C@@H](O)[C@@H]1O [Example 144, 5-amino-2-(2,6-difluorophenyl)-N-(4-((2R,3S,4R)-3,4-dihydroxy-2-vinyl-3,4-dihydro-2H-pyran-6-yl)pyridin-3-yl)pyrimidine-4-carboxamide] | 5.3 nM | 3.7 nM | 4.3 nM | 394 nM | 4340 nM |
| N#CC[C@H]1O[C@@H](c2ccncc2NC(=O)c2nc(-c3c(F)cccc3F)ncc2N)C[C@@H](O)[C@@H]1O [Example 138, 5-amino-N-(4-((2R,4R,5S,6R)-6-(cyanomethyl)-4,5-dihydroxytetrahydro-2H-pyran-2-yl)pyridin-3-yl)-2-(2,6-difluorophenyl)pyrimidine-4-carboxamide] | 24 nM | 27 nM | 14 nM | 235 nM | > 10000 nM |
| C[C@H]1O[C@@H](c2ccncc2NC(=O)c2csc(-c3c(F)cccc3F)n2)C[C@@H](O)[C@]1(C)O (stereo in doubt) [Example 109, 2-(2,6-difluorophenyl)-N-(4-((2R,4R,5S,6R)-4,5-dihydroxy-5,6-dimethyltetrahydro-2H-pyran-2-yl)pyridin-3-yl)thiazole-4-carboxamide] | 68 nM | 3420 nM | 88 nM | 272 nM | > 10000 nM |
| O=C(Nc1cnccc1[C@H]1C[C@@H](O)[C@H](O)[C@@H](C2CC2)O1)c1ccc(F)c(-c2c(F)cccc2F)n1 [Example 211, N-(4-((2R,4R,5S,6R)-6-cyclopropyl-4,5-dihydroxytetrahydro-2H-pyran-2-yl)pyridin-3-yl)-6-(2,6-difluorophenyl)-5-fluoropicolinamide] | 1 nM | 3.1 nM | 2.2 nM | 636 nM | 2700 nM |
| O=C(Nc1cnccc1[C@@H]1C[C@H](O)[C@@H](O)[C@H](C2CC2)O1)c1cccc(-c2c(F)cccc2F)n1 [Example 206, N-(4-((2S,4S,5R,6S)-6-cyclopropyl-4,5-dihydroxytetrahydro-2H-pyran-2-yl)pyridin-3-yl)-6-(2,6-difluorophenyl)picolinamide] | 19.9 nM | 33.8 nM | 20.2 nM | 1920 nM | > 10000 nM |
| O=C(Nc1cnccc1[C@H]1C[C@@H](O)[C@H](O)[C@@H](CO)O1)c1ccc(F)c(-c2c(F)cccc2F)n1 [Example 83, 6-(2,6-difluorophenyl)-N-(4-((2R,4R,5S,6R)-4,5-dihydroxy-6-(hydroxymethyl)tetrahydro-2H-pyran-2-yl)pyridin-3-yl)-5-fluoropicolinamide] | 19 nM | 291 nM | 32 nM | 2800 nM | > 10000 nM |
